Data: PubChem BioAssay AID288 (DTP/NCI, 2004)
“And” between values parts separate entries of the source, which are not always exact repeats. Equal entries are not always repeated. Inconclusive results are not listed.

Tested on: BDF1 mice, M5076 sarcoma s.c., survival/tumor T/C
Test: NCI In Vivo Anticancer Drug Screen. Data for tumor model Sarcoma M5076 (subcutaneous) in B6D2F1 (BDF1) mice
Protocol: The antitumor activity of compounds was measured in mice bearing transplantable tumors. Survival or tumor size were measured and the results are expressed as the measurement made in the treated group (T) divided by the measurement made in the vehicle treated control group (C). The tumor model used in this assay is Sarcoma M5076 (subcutaneous) in B6D2F1 (BDF1) mice

[1] = endpoint: median survival time, dose: 50.0 mg/kg/injection, schedule: Q01DX009 (ip), vehicle: saline with Tween-80, higher = longer survival
[2] = endpoint: median survival time, dose: 100.0 mg/kg/injection, schedule: Q01DX009 (ip), vehicle: saline with Tween-80, higher = longer survival
[3] = endpoint: median survival time, dose: 200.0 mg/kg/injection, schedule: Q01DX009 (ip), vehicle: saline with Tween-80, higher = longer survival
[4] = endpoint: median survival time, dose: 50.0 mg/kg/injection, schedule: Q04DX003 (ip), vehicle: saline with Tween-80, higher = longer survival

CN1C(=O)CN2CCc3ccccc3C2c2cc(Cl)ccc21 (stereo not drawn)
T/C [1]: 99 % of control
T/C [2]: 102 % of control
T/C [3]: 105 % of control

O=C1NC2(CCCCC2)C(=O)N1CCN(CCCl)CCCl
T/C (endpoint: median tumor weight (est.), dose: 16.0 mg/kg/injection, schedule: Q01DX009 (ip), vehicle: saline with Tween-80, higher = larger tumour): 10 % of control

O=C1C=CN(C2OC(CO)C(O)C2O)C(=O)C1 (stereo not drawn)
T/C (endpoint: mean tumor weight, dose: 150.0 mg/kg/injection, schedule: Q02DX011 (ip), vehicle: saline, higher = larger tumour): 42 % of control and 46 % of control
T/C (endpoint: mean tumor weight, dose: 300.0 mg/kg/injection, schedule: Q02DX011 (ip), vehicle: saline, higher = larger tumour): 44 % of control and 51 % of control
T/C (endpoint: median tumor weight (est.), dose: 75.0 mg/kg/injection, schedule: Q02DX011 (ip), vehicle: saline, higher = larger tumour): 78 % of control and 82 % of control
T/C (endpoint: median tumor weight (est.), dose: 150.0 mg/kg/injection, schedule: Q02DX011 (ip), vehicle: saline, higher = larger tumour): 43 % of control and 48 % of control
T/C (endpoint: median tumor weight (est.), dose: 300.0 mg/kg/injection, schedule: Q02DX011 (ip), vehicle: saline, higher = larger tumour): 38 % of control and 46 % of control

C[C@@]12C(=O)OC(=O)[C@]1(C)[C@H]1CC[C@@H]2O1
T/C (endpoint: median survival time, dose: 0.1 mg/kg/injection, schedule: Q01DX009 (ip), vehicle: acetone, higher = longer survival): 94 % of control
T/C (endpoint: median survival time, dose: 0.2 mg/kg/injection, schedule: Q01DX009 (ip), vehicle: acetone, higher = longer survival): 106 % of control
T/C (endpoint: median survival time, dose: 0.4 mg/kg/injection, schedule: Q01DX009 (ip), vehicle: acetone, higher = longer survival): 101 % of control
T/C (endpoint: median survival time, dose: 0.8 mg/kg/injection, schedule: Q01DX009 (ip), vehicle: acetone, higher = longer survival): 89 % of control
T/C (endpoint: median tumor weight (est.), dose: 0.1 mg/kg/injection, schedule: Q01DX009 (ip), vehicle: acetone, higher = larger tumour): 117 % of control
T/C (endpoint: median tumor weight (est.), dose: 0.2 mg/kg/injection, schedule: Q01DX009 (ip), vehicle: acetone, higher = larger tumour): 64 % of control
T/C (endpoint: median tumor weight (est.), dose: 0.4 mg/kg/injection, schedule: Q01DX009 (ip), vehicle: acetone, higher = larger tumour): 109 % of control
T/C (endpoint: median tumor weight (est.), dose: 0.8 mg/kg/injection, schedule: Q01DX009 (ip), vehicle: acetone, higher = larger tumour): 90 % of control

CCC/C=C/C=C/C(=O)OC1/C(=C/C(=O)OC)CC2CC(C(C)O)OC(=O)CC(O)CC3CC(OC(C)=O)C(C)(C)C(O)(CC4C/C(=C/C(=O)OC)CC(/C=C/C(C)(C)C1(O)O2)O4)O3 (stereo not drawn)
T/C (endpoint: median survival time, dose: 5.0 micrograms/kg/injection, schedule: Q01DX009 (ip), vehicle: saline + Tween-80 + alcohol, higher = longer survival): 100 % of control
T/C (endpoint: median survival time, dose: 5.0 micrograms/kg/injection, schedule: Q01DX009 (ip), vehicle: saline + alcohol, higher = longer survival): 106 % of control
T/C (endpoint: median survival time, dose: 10.0 micrograms/kg/injection, schedule: Q01DX009 (ip), vehicle: saline + Tween-80 + alcohol, higher = longer survival): 97 % of control
T/C (endpoint: median survival time, dose: 10.0 micrograms/kg/injection, schedule: Q01DX009 (ip), vehicle: saline + alcohol, higher = longer survival): 96 % of control
T/C (endpoint: median survival time, dose: 20.0 micrograms/kg/injection, schedule: Q01DX009 (ip), vehicle: saline + Tween-80 + alcohol, higher = longer survival): 111 % of control
T/C (endpoint: median survival time, dose: 20.0 micrograms/kg/injection, schedule: Q01DX009 (ip), vehicle: saline + alcohol, higher = longer survival): 111 % of control
T/C (endpoint: median survival time, dose: 80.0 micrograms/kg/injection, schedule: Q01DX009 (ip), vehicle: saline + Tween-80 + alcohol, higher = longer survival): 103 % of control
T/C (endpoint: median survival time, dose: 80.0 micrograms/kg/injection, schedule: Q01DX009 (ip), vehicle: saline + alcohol, higher = longer survival): 103 % of control
T/C (endpoint: median tumor weight (est.), dose: 5.0 micrograms/kg/injection, schedule: Q01DX009 (ip), vehicle: saline + Tween-80 + alcohol, higher = larger tumour): 102 % of control
T/C (endpoint: median tumor weight (est.), dose: 5.0 micrograms/kg/injection, schedule: Q01DX009 (ip), vehicle: saline + alcohol, higher = larger tumour): 198 % of control
T/C (endpoint: median tumor weight (est.), dose: 10.0 micrograms/kg/injection, schedule: Q01DX009 (ip), vehicle: saline + Tween-80 + alcohol, higher = larger tumour): 89 % of control
T/C (endpoint: median tumor weight (est.), dose: 10.0 micrograms/kg/injection, schedule: Q01DX009 (ip), vehicle: saline + alcohol, higher = larger tumour): 107 % of control
T/C (endpoint: median tumor weight (est.), dose: 20.0 micrograms/kg/injection, schedule: Q01DX009 (ip), vehicle: saline + Tween-80 + alcohol, higher = larger tumour): 83 % of control
T/C (endpoint: median tumor weight (est.), dose: 20.0 micrograms/kg/injection, schedule: Q01DX009 (ip), vehicle: saline + alcohol, higher = larger tumour): 10 % of control
T/C (endpoint: median tumor weight (est.), dose: 40.0 micrograms/kg/injection, schedule: Q01DX009 (ip), vehicle: saline + Tween-80 + alcohol, higher = larger tumour): 11 % of control

c1cnc2c(OCCOCCOCCOCCOc3cccc4cccnc34)cccc2c1
T/C [1]: 98 % of control
T/C [2]: 122 % of control
T/C [3]: 121 % of control
T/C (endpoint: median tumor weight (est.), dose: 50.0 mg/kg/injection, schedule: Q01DX009 (ip), vehicle: saline with Tween-80, higher = larger tumour): 73 % of control
T/C (endpoint: median tumor weight (est.), dose: 100.0 mg/kg/injection, schedule: Q01DX009 (ip), vehicle: saline with Tween-80, higher = larger tumour): 58 % of control
T/C (endpoint: median tumor weight (est.), dose: 200.0 mg/kg/injection, schedule: Q01DX009 (ip), vehicle: saline with Tween-80, higher = larger tumour): 49 % of control

O=C1N=C(Oc2ccccc2)SC1=O
T/C [4]: 106 % of control

C1CN1c1nc(N2CC2)nc(N2CC2)n1
T/C (endpoint: mean tumor weight, dose: 0.1 mg/kg/injection, schedule: Q02DX011 (ip), vehicle: Klucel (hydroxypropylcellulose) (HPC), higher = larger tumour): 76 % of control
T/C (endpoint: mean tumor weight, dose: 0.2 mg/kg/injection, schedule: Q02DX011 (ip), vehicle: Klucel (hydroxypropylcellulose) (HPC), higher = larger tumour): 25 % of control
T/C (endpoint: mean tumor weight, dose: 0.4 mg/kg/injection, schedule: Q02DX011 (ip), vehicle: Klucel (hydroxypropylcellulose) (HPC), higher = larger tumour): 8 % of control
T/C (endpoint: median survival time, dose: 0.06 mg/kg/injection, schedule: Q02DX011 (ip), vehicle: saline, higher = longer survival): 100 % of control
T/C (endpoint: median survival time, dose: 0.13 mg/kg/injection, schedule: Q02DX011 (ip), vehicle: saline, higher = longer survival): 113 % of control
T/C (endpoint: median survival time, dose: 0.25 mg/kg/injection, schedule: Q02DX011 (ip), vehicle: saline, higher = longer survival): 100 % of control
T/C (endpoint: median survival time, dose: 1.0 mg/kg/injection, schedule: Q02DX011 (ip), vehicle: saline, higher = longer survival): 191 % of control

COc1cc(C(C)(C)C)cc(OC)c1C(O)(c1c(OC)cc(C(C)(C)C)cc1OC)c1c(OC)cc(C(C)(C)C)cc1OC
T/C [4]: 95 % of control
T/C (endpoint: median survival time, dose: 100.0 mg/kg/injection, schedule: Q04DX003 (ip), vehicle: saline with Tween-80, higher = longer survival): 102 % of control

S=P(N1CC1)(N1CC1)N1CC1
T/C (endpoint: median survival time, dose: 3.4 mg/kg/injection, schedule: Q01DX007 (ip), vehicle: saline, higher = longer survival): 100 % of control
T/C (endpoint: median survival time, dose: 3.4 mg/kg/injection, schedule: Q02DX007 (ip), vehicle: saline, higher = longer survival): 105 % of control
T/C (endpoint: median survival time, dose: 4.0 mg/kg/injection, schedule: Q04DX003 (ip), vehicle: saline, higher = longer survival): 101 % of control
T/C (endpoint: median survival time, dose: 5.0 mg/kg/injection, schedule: Q01DX007 (ip), vehicle: saline, higher = longer survival): 105 % of control
T/C (endpoint: median survival time, dose: 5.0 mg/kg/injection, schedule: Q02DX007 (ip), vehicle: saline, higher = longer survival): 101 % of control
T/C (endpoint: median survival time, dose: 6.0 mg/kg/injection, schedule: Q04DX003 (ip), vehicle: saline, higher = longer survival): 100 % of control
T/C (endpoint: median survival time, dose: 6.0 mg/kg/injection, schedule: Q07DX003 (ip), vehicle: saline, higher = longer survival): 99 % of control
T/C (endpoint: median survival time, dose: 7.5 mg/kg/injection, schedule: Q01DX007 (ip), vehicle: saline, higher = longer survival): 106 % of control
T/C (endpoint: median survival time, dose: 7.5 mg/kg/injection, schedule: Q02DX007 (ip), vehicle: saline, higher = longer survival): 117 % of control
T/C (endpoint: median survival time, dose: 9.0 mg/kg/injection, schedule: Q04DX003 (ip), vehicle: saline, higher = longer survival): 107 % of control
T/C (endpoint: median survival time, dose: 9.0 mg/kg/injection, schedule: Q07DX003 (ip), vehicle: saline, higher = longer survival): 108 % of control
T/C (endpoint: median survival time, dose: 12.0 mg/kg/injection, schedule: Q07DX003 (ip), vehicle: saline, higher = longer survival): 111 % of control

COC(=O)[C@@]12OC[C@]34[C@H]([C@@H](O)[C@@H]1O)[C@@]1(C)CC(=O)C(O)=C(C)[C@@H]1C[C@H]3OC(=O)[C@H](OC(=O)/C=C(\C)C(C)C)[C@@H]24
T/C (endpoint: mean tumor weight, dose: 0.5 mg/kg/injection, schedule: Q02DX011 (ip), vehicle: saline with Tween-80, higher = larger tumour): 114 % of control
T/C (endpoint: mean tumor weight, dose: 1.0 mg/kg/injection, schedule: Q02DX011 (ip), vehicle: saline with Tween-80, higher = larger tumour): 94 % of control
T/C (endpoint: mean tumor weight, dose: 2.0 mg/kg/injection, schedule: Q02DX011 (ip), vehicle: saline with Tween-80, higher = larger tumour): 26 % of control

O=C(O)c1c(CS(F)(F)(F)(F)F)cc(=O)oc1CS(F)(F)(F)(F)F
T/C [1]: 98 % of control

CC[C@]1(O)C[C@H]2CN(CCc3c([nH]c4ccccc34)[C@@](C(=O)OC)(c3cc4c(cc3OC)N(C=O)[C@H]3[C@@](O)(C(=O)OC)[C@H](OC(C)=O)[C@]5(CC)C=CCN6CC[C@]43[C@@H]65)C2)C1
T/C (endpoint: median survival time, dose: 0.08 mg/kg/injection, schedule: Q02DX030 (ip), vehicle: saline, higher = longer survival): 110 % of control
T/C (endpoint: median survival time, dose: 0.08 mg/kg/injection, schedule: Q04DX006 (ip), vehicle: saline, higher = longer survival): 112 % of control
T/C (endpoint: median survival time, dose: 0.15 mg/kg/injection, schedule: Q04DX006 (ip), vehicle: saline, higher = longer survival): 97 % of control
T/C (endpoint: median survival time, dose: 0.3 mg/kg/injection, schedule: Q04DX006 (ip), vehicle: saline, higher = longer survival): 103 % of control
T/C (endpoint: median survival time, dose: 0.6 mg/kg/injection, schedule: Q04DX006 (ip), vehicle: saline, higher = longer survival): 109 % of control

COC(=O)C[C@](O)(CCCC(C)(C)O)C(=O)O[C@@H]1C(OC)=C[C@]23CCCN2CCc2cc4c(cc2[C@H]13)OCO4
T/C (endpoint: mean tumor weight, dose: 0.5 mg/kg/injection, schedule: Q02DX011 (ip), vehicle: saline, higher = larger tumour): 114 % of control
T/C (endpoint: mean tumor weight, dose: 2.0 mg/kg/injection, schedule: Q02DX011 (ip), vehicle: saline, higher = larger tumour): 37 % of control
T/C (endpoint: median tumor weight (est.), dose: 0.5 mg/kg/injection, schedule: Q02DX011 (ip), vehicle: saline, higher = larger tumour): 77 % of control
T/C (endpoint: median tumor weight (est.), dose: 2.0 mg/kg/injection, schedule: Q02DX011 (ip), vehicle: saline, higher = larger tumour): 34 % of control
